Columns and labels:
Full length human TBK1 = molecular target: T1, Full length human TBK1 (Homo sapiens, UniProt Q9UHD2); assay: Inhibition of TBK1 Enzyme (Caliper microfluidic assay); assay type: biochemical; settings: 25 μM ATP, 60 min at RT; -log(IC50), IC50 molar; read-out: TBK1 Inhibition (pIC50) (converted)
T1 construct: Full length human TBK1 with an N-terminal His-tag; His-tag (N); made in house; host or cells: Sf9 insect cells (baculovirus, pFastBac1)
T1 sequence (Q9UHD2 1-729): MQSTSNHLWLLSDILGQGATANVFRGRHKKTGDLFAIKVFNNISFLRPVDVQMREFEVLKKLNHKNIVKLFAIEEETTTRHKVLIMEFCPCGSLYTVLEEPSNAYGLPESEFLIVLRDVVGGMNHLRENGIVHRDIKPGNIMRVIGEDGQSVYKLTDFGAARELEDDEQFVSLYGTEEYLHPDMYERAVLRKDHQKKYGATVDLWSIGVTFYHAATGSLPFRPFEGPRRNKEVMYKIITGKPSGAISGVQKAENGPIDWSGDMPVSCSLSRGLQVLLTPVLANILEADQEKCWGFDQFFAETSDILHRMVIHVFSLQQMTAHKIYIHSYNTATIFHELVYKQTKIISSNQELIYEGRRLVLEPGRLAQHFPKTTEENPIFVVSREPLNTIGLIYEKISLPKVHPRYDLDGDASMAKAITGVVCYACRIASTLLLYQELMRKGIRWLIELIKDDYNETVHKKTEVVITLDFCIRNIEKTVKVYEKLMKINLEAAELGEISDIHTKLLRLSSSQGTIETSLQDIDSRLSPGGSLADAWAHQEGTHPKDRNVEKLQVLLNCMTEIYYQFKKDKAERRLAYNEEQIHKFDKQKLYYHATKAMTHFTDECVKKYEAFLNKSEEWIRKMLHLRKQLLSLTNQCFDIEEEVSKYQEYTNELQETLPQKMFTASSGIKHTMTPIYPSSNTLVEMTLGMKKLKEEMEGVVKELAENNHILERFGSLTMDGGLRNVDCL
Outline: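 Enzyme: His-tagged full-length TBK1 expressed in Sf9. Reaction 60 min at RT in 20 mM Hepes pH 7.4, 10 mM MgCl2, 1 mM EDTA, 0.01% Brij-L23, 1 mM DTT, with 5FAM-peptide (added at 1 μM) and TBK1/ATP mix (added at 3 nM/25 μM), then EDTA-quenched. Conversion measured by microfluidic separation; 11-point 2.5-fold series fit to pIC50.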

TBK1 = molecular target: T2, TBK1 (Homo sapiens, UniProt Q9UHD2); assay: Inhibition of TBK1 in Cells (TLR3 driven ISRE β-lactamase reporter assay); assay type: cell-based; settings: poly IC-LMW stimulation 16 hrs; -log(EC50), EC50 molar; read-out: Inhibition of TBK1 in cells pEC50 (EC) (converted)
T2 construct: host or cells: RA1-ISRE beta-lactamase reporter cells
T2 sequence (Q9UHD2 1-729): T1 sequence (Q9UHD2 1-729)
Outline: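 RA1-ISRE β-lactamase reporter cells (50,000/well) treated with 11-point 2.5-fold compound dilutions and stimulated with 0.15 mg/ml poly IC-LMW for 16 hrs. Reporter read by CCF4-AM FRET; EC50 from non-linear fit of percent inhibition, reported as pEC50 (molar).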

Structure (SMILES) | IC50 (Full length human TBK1) | EC50 (TBK1)
O=C(Nc1cn2cc(-c3csc(C(=O)N4CC(F)(F)C4)c3)ccc2n1)C1CC1 [Example 77, N-(6-(5-(3,3-difluoroazetidine-1-carbonyl)thiophen-3-yl)imidazo[1,2-a]pyridin-2-yl)cyclopropanecarboxamide] | 63.1 nM | 1660 nM
O=C(NCCC(F)(F)F)c1cc(-c2ccc3nc(NC(=O)C4CC4)cn3c2)cs1 [Example 78, 4-(2-(cyclopropanecarboxamido)imidazo[1,2-a]pyridin-6-yl)-N-(3,3,3-trifluoropropyl)thiophene-2-carboxamide] | 10 nM | 479 nM
CC(=O)N1CCC(NC(=O)c2cc(-c3ccc4nc(NC(=O)C5CC5)cn4c3)cs2)C1 (centres unmarked) [Example 79, N-(1-acetylpyrrolidin-3-yl)-4-(2-(cyclopropanecarboxamido)imidazo[1,2-a]pyridin-6-yl)thiophene-2-carboxamide] | 79.4 nM | 22900 nM
C[C@H](NC(=O)c1cc(-c2ccc3nc(NC(=O)C4CC4)cn3c2)cs1)C(F)(F)F [Example 80, (S)-4-(2-(cyclopropanecarboxamido)imidazo[1,2-a]pyridin-6-yl)-N-(1,1,1-trifluoropropan-2-yl)thiophene-2-carboxamide] | 63.1 nM | 1380 nM
C[C@@H](NC(=O)c1cc(-c2ccc3nc(NC(=O)C4CC4)cn3c2)cs1)C(F)(F)F [Example 81, (R)-4-(2-(cyclopropanecarboxamido)imidazo[1,2-a]pyridin-6-yl)-N-(1,1,1-trifluoropropan-2-yl)thiophene-2-carboxamide] | 2.51 nM | 44.7 nM
COCCN(CC(F)(F)F)C(=O)c1cc(-c2ccc3nc(NC(=O)C4CC4)cn3c2)cs1 [Example 83, 4-(2-(cyclopropanecarboxamido)imidazo[1,2-a]pyridin-6-yl)-N-(2-methoxyethyl)-N-(2,2,2-trifluoroethyl)thiophene-2-carboxamide] | 20 nM | 646 nM
O=C(NC1COCC1O)c1cc(-c2ccc3nc(NC(=O)C4CC4)cn3c2)cs1 (centres unmarked) [Example 84, 4-(2-(cyclopropanecarboxamido)imidazo[1,2-a]pyridin-6-yl)-N-(4-hydroxytetrahydrofuran-3-yl)thiophene-2-carboxamide] | 31.6 nM | 2820 nM
O=C(NC1CCCC1=O)c1cc(-c2ccc3nc(NC(=O)C4CC4)cn3c2)cs1 (centres unmarked) [Example 85, 4-(2-(cyclopropanecarboxamido)imidazo[1,2-a]pyridin-6-yl)-N-(2-oxocyclopentyl)thiophene-2-carboxamide] | 100 nM | 4070 nM
O=C(N[C@H]1CCOC1)c1nc(-c2ccc3nc(NC(=O)C4CC4)cn3c2)cs1 [Example 87, (S)-4-(2-(cyclopropanecarboxamido)imidazo[1,2-a]pyridin-6-yl)-N-(tetrahydrofuran-3-yl)thiazole-2-carboxamide] | 63.1 nM | 2880 nM
O=C(N[C@H]1CCC[C@H]1O)c1nc(-c2ccc3nc(NC(=O)C4CC4)cn3c2)cs1 [Example 89, 4-(2-(cyclopropanecarboxamido)imidazo[1,2-a]pyridin-6-yl)-N-((1S, 2R)-2-hydroxycyclopentyl)thiazole-2-carboxamide] | 31.6 nM | 1020 nM
O=C(NC1CCCC1(F)F)c1nc(-c2ccc3nc(NC(=O)C4CC4)cn3c2)cs1 (centres unmarked) [Example 90, 4-(2-(cyclopropanecarboxamido)imidazo[1,2-a]pyridin-6-yl)-N-(2,2-difluorocyclopentyl)thiazole-2-carboxamide] | 39.8 nM | 1020 nM
O=C(NC1CCCC1=O)c1nc(-c2ccc3nc(NC(=O)C4CC4)cn3c2)cs1 (centres unmarked) [Example 91, 4-(2-(cyclopropanecarboxamido)imidazo[1,2-a]pyridin-6-yl)-N-(2-oxocyclopentyl)thiazole-2-carboxamide] | 200 nM | 5130 nM
O=C(NCCC(F)(F)F)c1nc(-c2ccc3nc(NC(=O)C4CC4)cn3c2)cs1 [Example 92, 4-(2-(cyclopropanecarboxamido)imidazo[1,2-a]pyridin-6-yl)-N-(3,3,3-trifluoropropyl)thiazole-2-carboxamide] | 50.1 nM | 1120 nM
O=C(Nc1cn2cc(-c3csc(C(=O)N4CCC[C@@H]4C(F)(F)F)n3)ccc2n1)C1CC1 [Example 93, (R)-N-(6-(2-(2-(trifluoromethyl)pyrrolidine-1-carbonyl)thiazol-4-yl)imidazo[1,2-a]pyridin-2-yl)cyclopropanecarboxamide] | 7.94 nM | 110 nM

Now from value to compound:

IC50 (Full length human TBK1) | EC50 (TBK1) | Structure (SMILES)
200 nM | 5500 nM | O=C(NC1CCOC1=O)c1nc(-c2ccc3nc(NC(=O)C4CC4)cn3c2)cs1 (centres unmarked) [Example 94, 4-(2-(cyclopropanecarboxamido)imidazo[1,2-a]pyridin-6-yl)-N-(2-oxotetrahydrofuran-3-yl)thiazole-2-carboxamide]
63.1 nM | 851 nM | O=C(Nc1cn2cc(-c3csc(C(=O)N4CC(F)(F)C[C@H]4CO)n3)ccc2n1)C1CC1 [Example 96, (S)-N-(6-(2-(4,4-difluoro-2-(hydroxymethyl)pyrrolidine-1-carbonyl)thiazol-4-yl)imidazo[1,2-a]pyridin-2-yl)cyclopropanecarboxamide]
126 nM | 1550 nM | COC1CCN(C(=O)c2nc(-c3ccc4nc(NC(=O)C5CC5)cn4c3)cs2)C1 (centres unmarked) [Example 97, N-(6-(2-(3-methoxypyrrolidine-1-carbonyl)thiazol-4-yl)imidazo[1,2-a]pyridin-2-yl)cyclopropanecarboxamide]
200 nM | 14500 nM | NC(=O)C1CCN(C(=O)c2nc(-c3ccc4nc(NC(=O)C5CC5)cn4c3)cs2)C1 (centres unmarked) [Example 98, 1-(4-(2-(cyclopropanecarboxamido)imidazo[1,2-a]pyridin-6-yl)thiazole-2-carbonyl)pyrrolidine-3-carboxamide]
200 nM | 776 nM | N#CC1CN(C(=O)c2nc(-c3ccc4nc(NC(=O)C5CC5)cn4c3)cs2)C1 [Example 102, N-(6-(2-(3-cyanoazetidine-1-carbonyl)thiazol-4-yl)imidazo[1,2-a]pyridin-2-yl)cyclopropanecarboxamide]
79.4 nM | 794 nM | CC1CCN(C(=O)c2nc(-c3ccc4nc(NC(=O)C5CC5)cn4c3)cs2)C1 (centres unmarked) [Example 103, N-(6-(2-(3-methylpyrrolidine-1-carbonyl)thiazol-4-yl)imidazo[1,2-a]pyridin-2-yl)cyclopropanecarboxamide]
5.01 nM | 166 nM | C[C@@H](NC(=O)c1cc(-c2ccc3nc(NC(=O)C4CC4)cn3c2)n[nH]1)C(F)(F)F [Example 104, (R)-3-(2-(cyclopropanecarboxamido)imidazo[1,2-a]pyridin-6-yl)-N-(1,1,1-trifluoropropan-2-yl)-1H-pyrazole-5-carboxamide]
316 nM | 5370 nM | O=C(Nc1cn2cc(-c3cc(C(=O)N4CCC(F)CC4)[nH]n3)ccc2n1)C1CC1 [Example 105, N-(6-(5-(4-fluoropiperidine-1-carbonyl)-1H-pyrazol-3-yl)imidazo[1,2-a]pyridin-2-yl)cyclopropanecarboxamide]
31.6 nM | 589 nM | CN(CC(F)(F)F)C(=O)c1cc(-c2ccc3nc(NC(=O)C4CC4)cn3c2)n[nH]1 [Example 106, 3-(2-(cyclopropanecarboxamido)imidazo[1,2-a]pyridin-6-yl)-N-methyl-N-(2,2,2-trifluoroethyl)-1H-pyrazole-5-carboxamide]
63.1 nM | 2750 nM | O=C(Nc1cn2cc(-c3cc(C(=O)N4CCC(F)C4)[nH]n3)ccc2n1)C1CC1 (centres unmarked) [Example 107, N-(6-(5-(3-fluoropyrrolidine-1-carbonyl)-1H-pyrazol-3-yl)imidazo[1,2-a]pyridin-2-yl)cyclopropanecarboxamide]
79.4 nM | 4370 nM | O=C(N[C@H]1COC[C@H]1O)c1nc(-c2ccc3nc(NC(=O)C4CC4)cn3c2)cs1 [Example 108, 4-(2-(cyclopropanecarboxamido)imidazo[1,2-a]pyridin-6-yl)-N-((3S,4S)-4-hydroxytetrahydrofuran-3-yl)thiazole-2-carboxamide]
